# Data taken from PubChem BioAssay AID2060361 (Molecular Pharmacology Branch, DTP, NCI, 2025).
# pIC50: −log10 of the molar value. Where “and” joins values, the source holds several entries; their conditions need not be identical. Equal entries are not always repeated.
# Tested on: 463943-066-T-J2-PDC tumor spheroids with HUVEC/MSC, viability
# Test: Anticancer human tumor 463943-066-T-J2-PDC patient-derived colon adenocarcinoma cell line growth inhibition [TAK]
# Conditions: for viability, T/C: stronger effect = lower value
# Text: Combinatorial screen of targeted agents with TAK-243 and ipatasertib in multi-cell type tumor spheroids
# A high-throughput screen of multi-cell type tumor spheroids was designed to identify active combinations of targeted small molecules and TAK-243 or ipatasertib. Complex spheroids include a stromal component modeled by human endothelial cells (HUVEC) and fibroblasts modeled by human mesenchymal stem cells (MSCs). The concentration ranges selected for each drug and investigational agent were based upon clinically achievable concentrations if the clinical Cmax of the agent was known.
# Compounds. The drugs and investigational agents: TAK-243 (785004), ipatasertib (767898), everolimus (733504), selumetinib (741078), bortezomib (756655), trametinib (758246), ixazomib (758254), vemurafenib (761431), dabrafenib (764134), sapanisertib (764658), alpelisib (765974), and copanlisib (816437), were obtained from the National Cancer Institute (NCI) Developmental Therapeutics Program Chemical Repository. The FDA-approved anticancer drug set is available from the NCI Developmental Therapeutics Program. […] The stock solutions were prepared in dimethyl sulfoxide (DMSO, Sigma-Aldrich, St. Louis, MO, cat. D2650) at 800-fold the tested concentration and stored at -70 degrees C prior to their use. All drugs and investigational agents were tested over a range starting from a high concentration at or near the clinical Cmax and decreasing in half-log increments. If the clinical Cmax for an agent had not been determined, the highest concentration tested was 10 microM.
# NCI60 Cell Culture. NCI60 cell lines were obtained from the NCI Developmental Therapeutics Program Tumor Repository. For each lot of cells, the Repository performed Applied Biosystems AmpFLSTR Identifiler testing with PCR amplification to confirm consistency with the published Identifier STR profile for each cell line. Cells were kept in continuous culture for no more than 20 passages. The optimal seeding densities for each of the cell lines at each time point assessed were determined prior to performing the concentration response studies. Briefly, the NCI60 human tumor lines were grown as monolayers in RPMI 1640 medium supplemented with 10% FBS and 2 mmol/L L-glutamine.
# An additional 2 lines were from the NCI60 cell line panel including melanomas, MALME-3M and SK-MEL-2. Pooled donor human umbilical vein endothelial cells (HUVEC, Lonza, cat. CC-2519) and human mesenchymal stem cells (hMSC, Lonza, cat. PT-2501) were purchased from Lonza (Walkersville, MD).
# PDMR cell lines were grown in complete medium (DC medium): Dulbecco's modified Eagle's medium (DMEM)/F12 supplemented with 5% fetal bovine serum (FBS), 2 mM L-glutamine, 100 U/mL penicillin and 100 µg/ml streptomycin, 0.4 µg/ml hydrocortisone, 10 ng/ml epidermal growth factor (EGF) recombinant human protein, 24 µg/mL adenine, and 0.1 mg/mL primocin. During culture from frozen stock vials, PDMR cells were cultured in the same medium containing 10 µM Y-27632 (see Table 3). The PDCs were cultured in complete DMEM/F12 media without 10 microM Y-27632 dihydrochloride for at least two passages prior to the screen. The pooled donor HUVEC and hMSC were cultured in endothelial cell growth medium 2 (PromoCell, Heidelberg, Germany, cat. C-22011) and mesenchymal stem cell growth medium 2 (PromoCell, cat. C-28009), respectively. For all experiments, HUVEC and hMSC were used at passages </=5.
# For the pre-screen, cell seeding densities were determined from a titration spanning the range from 5,000 to 313 cells per well. The mct-spheroids including 60% malignant cells, 25% HUVEC and 15% MSC dispensed as a mixture into U-bottom Ultra-Low Attachment 384-well plates (Corning, NY)
# High-throughput Drug Combination Screening.
# Prior to their inoculation into 384-well plates, malignant cells, HUVEC, and hMSC were removed from T flasks using TrypLE express (Thermo Fisher Scientific, cat. 12605036) and harvested by centrifugation for 5 min at 233 x g. […]
# [1] = curve of first compound, second compound 0.3 µM
# [2] = curve of first compound, second compound 0.949 µM
# [3] = curve of first compound, second compound 3 µM
# [4] = curve of first compound, second compound 9.49 µM
# [5] = curve of first compound, second compound 30 µM
# 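Also: spheroids exposed to drugs for seven days.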
# 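For viability, T/C in this document: 100% = DMSO vehicle control wells.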
smiles,measurement,setting,value
COC1CC2CCC(C)C(O)(O2)C(=O)C(=O)N2CCCCC2C(=O)OC(C(C)CC2CCC(OCCO)C(OC)C2)CC(=O)C(C)C=C(C)C(O)C(OC)C(=O)C(C)CC(C)C=CC=CC=C1C (stereo not drawn),"viability, T/C",compound 0.000316 µM,101% and 107%
same,"viability, T/C",compound 0.001 µM,91% and 91.9%
same,"viability, T/C",compound 0.00316 µM,87.1% and 85.7%
same,"viability, T/C",compound 0.01 µM,83.7% and 89.1%
same,"viability, T/C",compound 0.0316 µM,85.6% and 91.5%
same,"viability, T/C",compound 0.1 µM,76.8% and 86%
same,pIC50,curve of compound,< 7.00
CC(=O)Nc1cccc(-n2c(=O)n(C3CC3)c(=O)c3c(Nc4ccc(I)cc4F)n(C)c(=O)c(C)c32)c1,"viability, T/C",compound 94.9 pM,104% and 102%
same,"viability, T/C",compound 0.0003 µM,93.3% and 98.1%
same,"viability, T/C",compound 0.000949 µM,89.2% and 86.9%
same,"viability, T/C",compound 0.003 µM,86.5% and 68.9%
same,"viability, T/C",compound 0.00949 µM,81.9% and 67.4%
same,"viability, T/C",compound 0.03 µM,67.2% and 59.4%
same,pIC50,curve of compound,< 7.52
CC(C)CC(NC(=O)CNC(=O)c1cc(Cl)ccc1Cl)B1OC(=O)CC(CC(=O)O)(C(=O)O)O1 (stereo not drawn),"viability, T/C",compound 0.000316 µM,109% and 95.1%
same,"viability, T/C",compound 0.001 µM,108% and 96.2%
same,"viability, T/C",compound 0.00316 µM,122% and 97.5%
same,"viability, T/C",compound 0.01 µM,100% and 95.3%
same,"viability, T/C",compound 0.0316 µM,82.2% and 73.6%
same,"viability, T/C",compound 0.1 µM,81.4% and 74.8%
same,pIC50,curve of compound,< 7.00
CC(C)CC(NC(=O)CNC(=O)c1cc(Cl)ccc1Cl)B1OC(=O)CC(CC(=O)O)(C(=O)O)O1 (stereo not drawn) + CC(C)NCC(C(=O)N1CCN(c2ncnc3c2C(C)CC3O)CC1)c1ccc(Cl)cc1,pIC50,[1],< 7.00
same,pIC50,[2],< 7.00
same,pIC50,[3],< 7.00
same,pIC50,[4],< 7.00
same,pIC50,[5],< 7.00
same,"viability, T/C","second compound 0.3 µM, first compound 0.000316 µM",117%
same,"viability, T/C","second compound 0.3 µM, first compound 0.001 µM",107%
same,"viability, T/C","second compound 0.3 µM, first compound 0.00316 µM",106%
same,"viability, T/C","second compound 0.3 µM, first compound 0.01 µM",101%
same,"viability, T/C","second compound 0.3 µM, first compound 0.0316 µM",88.8%
same,"viability, T/C","second compound 0.3 µM, first compound 0.1 µM",80.5%
same,"viability, T/C","second compound 0.949 µM, first compound 0.000316 µM",98.3%
same,"viability, T/C","second compound 0.949 µM, first compound 0.001 µM",102%
same,"viability, T/C","second compound 0.949 µM, first compound 0.00316 µM",99%
same,"viability, T/C","second compound 0.949 µM, first compound 0.01 µM",105%
same,"viability, T/C","second compound 0.949 µM, first compound 0.0316 µM",86.9%
same,"viability, T/C","second compound 0.949 µM, first compound 0.1 µM",72.6%
same,"viability, T/C","second compound 3 µM, first compound 0.000316 µM",116%
same,"viability, T/C","second compound 3 µM, first compound 0.001 µM",98.9%
same,"viability, T/C","second compound 3 µM, first compound 0.00316 µM",95.4%
same,"viability, T/C","second compound 3 µM, first compound 0.01 µM",98.5%
same,"viability, T/C","second compound 3 µM, first compound 0.0316 µM",83.5%
same,"viability, T/C","second compound 3 µM, first compound 0.1 µM",80.7%
same,"viability, T/C","second compound 9.49 µM, first compound 0.000316 µM",91.4%
same,"viability, T/C","second compound 9.49 µM, first compound 0.001 µM",123%
same,"viability, T/C","second compound 9.49 µM, first compound 0.00316 µM",97.2%
same,"viability, T/C","second compound 9.49 µM, first compound 0.01 µM",95.2%
same,"viability, T/C","second compound 9.49 µM, first compound 0.0316 µM",78.1%
same,"viability, T/C","second compound 9.49 µM, first compound 0.1 µM",85.7%
same,"viability, T/C","second compound 30 µM, first compound 0.000316 µM",93.8%
same,"viability, T/C","second compound 30 µM, first compound 0.001 µM",99.1%
same,"viability, T/C","second compound 30 µM, first compound 0.00316 µM",90.6%
same,"viability, T/C","second compound 30 µM, first compound 0.01 µM",90.4%
same,"viability, T/C","second compound 30 µM, first compound 0.0316 µM",81.3%
same,"viability, T/C","second compound 30 µM, first compound 0.1 µM",71.7%
CC(C)NCC(C(=O)N1CCN(c2ncnc3c2C(C)CC3O)CC1)c1ccc(Cl)cc1 (stereo not drawn),"viability, T/C",compound 0.3 µM,94.2% [middle of 10 runs]
same,"viability, T/C",compound 3 µM,86.9% [middle of 10 runs]
same,pIC50,"compound alone, run of 02/28/2020",< 4.52
CCCS(=O)(=O)Nc1ccc(F)c(C(=O)c2c[nH]c3ncc(-c4ccc(Cl)cc4)cc23)c1F + CC(C)NCC(C(=O)N1CCN(c2ncnc3c2C(C)CC3O)CC1)c1ccc(Cl)cc1,pIC50,[1],< 4.00
same,pIC50,[2],< 4.00
same,pIC50,[3],< 4.00
same,pIC50,[4],< 4.00
same,pIC50,[5],< 4.00
same,"viability, T/C","second compound 0.3 µM, first compound 0.316 µM",105%
same,"viability, T/C","second compound 0.3 µM, first compound 1 µM",102%
same,"viability, T/C","second compound 0.3 µM, first compound 3.16 µM",104%
same,"viability, T/C","second compound 0.3 µM, first compound 10 µM",99.7%
same,"viability, T/C","second compound 0.3 µM, first compound 31.6 µM",125%
same,"viability, T/C","second compound 0.3 µM, first compound 100 µM",105%
same,"viability, T/C","second compound 0.949 µM, first compound 0.316 µM",108%
same,"viability, T/C","second compound 0.949 µM, first compound 1 µM",104%
same,"viability, T/C","second compound 0.949 µM, first compound 3.16 µM",103%
same,"viability, T/C","second compound 0.949 µM, first compound 10 µM",106%
same,"viability, T/C","second compound 0.949 µM, first compound 31.6 µM",64.2%
same,"viability, T/C","second compound 0.949 µM, first compound 100 µM",110%
same,"viability, T/C","second compound 3 µM, first compound 0.316 µM",103%
same,"viability, T/C","second compound 3 µM, first compound 1 µM",109%
same,"viability, T/C","second compound 3 µM, first compound 3.16 µM",92.7%
same,"viability, T/C","second compound 3 µM, first compound 10 µM",92%
same,"viability, T/C","second compound 3 µM, first compound 31.6 µM",88.4%
same,"viability, T/C","second compound 3 µM, first compound 100 µM",104%
same,"viability, T/C","second compound 9.49 µM, first compound 0.316 µM",102%
same,"viability, T/C","second compound 9.49 µM, first compound 1 µM",109%
same,"viability, T/C","second compound 9.49 µM, first compound 3.16 µM",98.2%
same,"viability, T/C","second compound 9.49 µM, first compound 10 µM",89.6%
same,"viability, T/C","second compound 9.49 µM, first compound 31.6 µM",68.6%
same,"viability, T/C","second compound 9.49 µM, first compound 100 µM",109%
same,"viability, T/C","second compound 30 µM, first compound 0.316 µM",87.5%
same,"viability, T/C","second compound 30 µM, first compound 1 µM",94.7%
same,"viability, T/C","second compound 30 µM, first compound 3.16 µM",91.9%
same,"viability, T/C","second compound 30 µM, first compound 10 µM",88.9%
same,"viability, T/C","second compound 30 µM, first compound 31.6 µM",25.6%
same,"viability, T/C","second compound 30 µM, first compound 100 µM",95.8%
CC(C)(C)c1nc(-c2cccc(NS(=O)(=O)c3c(F)cccc3F)c2F)c(-c2ccnc(N)n2)s1,"viability, T/C",compound 0.0316 µM,116% and 108%
same,"viability, T/C",compound 0.1 µM,110% and 108%
same,"viability, T/C",compound 0.316 µM,113% and 103%
same,"viability, T/C",compound 1 µM,112% and 109%
same,"viability, T/C",compound 3.16 µM,109% and 116%
same,"viability, T/C",compound 10 µM,104% and 107%
same,pIC50,curve of compound,< 5.00
CC(C)n1nc(-c2ccc3oc(N)nc3c2)c2c(N)ncnc21,"viability, T/C",compound 0.000316 µM,115% and 102%
same,"viability, T/C",compound 0.001 µM,103%
same,"viability, T/C",compound 0.00316 µM,93.7% and 84.9%
same,"viability, T/C",compound 0.01 µM,75.8% and 92.2%
same,"viability, T/C",compound 0.0316 µM,83.8% and 77.3%
same,"viability, T/C",compound 0.1 µM,82.8% and 76.9%
same,pIC50,curve of compound,< 7.00
